Test results reported in ChEMBL document CHEMBL5247580, “Discovery of novel AdipoRon analogues as potent anti-inflammatory agents against nonalcoholic steatohepatitis” (Eur J Med Chem, 2022).
Calls of active or inactive are those of the source. The rule behind the calls is not given here.

Legend:
RAW264.7 [1] = test: Cytotoxicity against mouse RAW264.7 cells at 50 uM by MTT assay relative to control; assay type: functional
RAW264.7 [2] = test: Anti-inflammatory activity in LPS induced mouse RAW264.7 cells assessed as inhibition of IL-1beta mRNA expression incubated for 12 hrs followed by LPS stimulation and measured after 6 hrs by RT-PCR method; assay type: functional, cell-based
RAW264.7 [3] = test: Anti-inflammatory activity in LPS induced mouse RAW264.7 cells assessed as inhibition of IL-1beta mRNA expression at 10 uM incubated for 12 hrs followed by LPS stimulation and measured after 6 hrs by RT-PCR method; assay type: functional, cell-based; conditions: time 18.0 hrs
Mus musculus [4] = test: Antiinflammatory activity in HFCFD-induced NASH po dosed C57BL/6JNifdc mouse model assessed as downregulation of CCL4 expression administered once daily for 4 weeks; assay type: functional, organism-based; conditions: dose 25-50 mg/kg
Mus musculus [5] = test: Anti-fibrosis effect in HFCFD-induced NASH C57BL/6JNifdc mouse model assessed as decrease in collagen accumulation at 25 to 50 mg/kg, po administered once daily for 4 weeks by Sirius red staining based analysis; assay type: functional, organism-based; conditions: dose 25-50 mg/kg
Mus musculus [6] = test: Reduction in hepatic steatosis in HFCFD-induced NASH C57BL/6JNifdc mouse model assessed as decrease in triglycerides at 25 to 50 mg/kg, po administered once daily for 4 weeks by Oil red-O staining based assay; assay type: functional, organism-based; conditions: dose 25-50 mg/kg
Mus musculus [7] = test: Antiinflammatory activity in HFCFD-induced NASH po dosed C57BL/6JNifdc mouse model assessed as downregulation of TNFalpha expression administered once daily for 4 weeks; assay type: functional, organism-based; conditions: dose 25-50 mg/kg
Mus musculus [8] = test: Anti-fibrosis effect in HFCFD-induced NASH C57BL/6JNifdc mouse model assessed as downregulation of Col1a1 mRNA level at 25 to 50 mg/kg, po administered once daily for 4 weeks; assay type: functional, organism-based; conditions: dose 25-50 mg/kg
[9] = biological target: T1, 5'-AMP-activated protein kinase (Mus musculus) (UniProt Q5EG47+Q8BRK8+Q6PAM0+O54950+Q91WG5+Q9R078+Q8BGM7); test: Agonist activity at AMPK in mouse C2C12 cells assessed as increase in PGC-1alpha mRNA level; assay type: cell-based; conditions: filed as agonist, dose <= 30.0 µM
Mus musculus [10] = test: Antiinflammatory activity in HFCFD-induced NASH C57BL/6JNifdc mouse model assessed as decrease in AST serum level at 50 mg/kg, po administered once daily for 4 weeks by automated biochemical analyzer; assay type: functional, organism-based
[11] = biological target: T1, 5'-AMP-activated protein kinase (Mus musculus); test: Agonist activity at AMPK in mouse C2C12 cells assessed as stimulation of AMPK phosphorylation at upto 30 uM; assay type: cell-based; conditions: filed as agonist
Mus musculus [12] = test: Anti-fibrosis effect in HFCFD-induced NASH C57BL/6JNifdc mouse model assessed as downregulation of Col3a1 mRNA level at 25 to 50 mg/kg, po administered once daily for 4 weeks; assay type: functional, organism-based; conditions: dose 25-50 mg/kg
Mus musculus [13] = test: Antiinflammatory activity in NASH C57BL/6JNifdc po dosed mouse model assessed as decrease in NF-kappaB p65 phosphorylation level administered once daily for 4 weeks by Western blot analysis; assay type: functional, organism-based; conditions: dose 25-50 mg/kg
Mus musculus [14] = test: Reduction in hepatic steatosis in HFCFD-induced NASH po dosed C57BL/6JNifdc mouse model assessed as decrease in lipid droplets administered once daily for 4 weeks by H and E staining based analysis; assay type: functional, organism-based; conditions: dose 25-50 mg/kg
Mus musculus [15] = test: Reduction in hepatic steatosis in HFCFD-induced NASH C57BL/6JNifdc mouse model assessed as decrease in neutral fat at 25 to 50 mg/kg, po administered once daily for 4 weeks by Oil red-O staining based assay; assay type: functional, organism-based; conditions: dose 25-50 mg/kg
Mus musculus [16] = test: Reduction in hepatic steatosis in HFCFD-induced NASH C57BL/6JNifdc mouse model assessed as decrease in fatty acids at 25 to 50 mg/kg, po administered once daily for 4 weeks by Oil red-O staining based assay; assay type: functional, organism-based; conditions: dose 25-50 mg/kg
Mus musculus [17] = test: Antiinflammatory activity in HFCFD-induced NASH po dosed C57BL/6JNifdc mouse model assessed as downregulation of IL-12beta expression administered once daily for 4 weeks; assay type: functional, organism-based; conditions: dose 25-50 mg/kg
Mus musculus [18] = test: Antiinflammatory activity in HFCFD-induced NASH po dosed C57BL/6JNifdc mouse model assessed as downregulation of IL-1beta expression administered once daily for 4 weeks; assay type: functional, organism-based; conditions: dose 25-50 mg/kg
Mus musculus [19] = test: Antiinflammatory activity in HFCFD-induced NASH po dosed C57BL/6JNifdc mouse model assessed as downregulation of CCL2 expression administered once daily for 4 weeks; assay type: functional, organism-based; conditions: dose 25-50 mg/kg
Mus musculus [20] = test: Antiinflammatory activity in HFCFD-induced NASH po dosed C57BL/6JNifdc mouse model assessed as downregulation of CCL5 expression administered once daily for 4 weeks; assay type: functional, organism-based; conditions: dose 25-50 mg/kg
Mus musculus [21] = test: Antiinflammatory activity in HFCFD-induced NASH C57BL/6JNifdc mouse model assessed as change inflammatory infiltration at 50 mg/kg, po administered once daily for 4 weeks by H and E staining based analysis; assay type: functional, organism-based
Mus musculus [22] = test: Anti-fibrosis effect in HFCFD-induced NASH C57BL/6JNifdc mouse model assessed as downregulation of alpha-SMA mRNA level at 25 to 50 mg/kg, po administered once daily for 4 weeks; assay type: functional, organism-based; conditions: dose 25-50 mg/kg
Mus musculus [23] = test: Reduction in hepatic steatosis in HFCFD-induced NASH C57BL/6JNifdc mouse model assessed as reduction in liver weight at 50 mg/kg, po administered once daily for 4 weeks; assay type: functional, organism-based
Mus musculus [24] = test: Antiinflammatory activity in HFCFD-induced NASH C57BL/6JNifdc mouse model assessed as decrease in ALT serum level at 50 mg/kg, po administered once daily for 4 weeks by automated biochemical analyzer; assay type: functional, organism-based
RAW264.7 [25] = test: Antiinflammatory activity in mouse RAW264.7 cells assessed as downregulation of NF-kappaB p65 phosphorylation level at upto 10 uM by Western blot analysis; assay type: functional, cell-based
[26] = biological target: T1, 5'-AMP-activated protein kinase (Mus musculus); test: Agonist activity at AMPK in mouse RAW264.7 cells assessed as stimulation of AMPK phosphorylation at upto 10 uM; assay type: cell-based; conditions: filed as agonist
Mus musculus [27] = test: Reduction in hepatic steatosis in HFCFD-induced NASH C57BL/6JNifdc mouse model assessed as reduction in liver/body weight ratio at 50 mg/kg, po administered once daily for 4 weeks; assay type: functional, organism-based
Mus musculus [28] = test: Reduction in hepatic steatosis in HFCFD-induced NASH po dosed C57BL/6JNifdc mouse model assessed as decrease in hepatocellular vacuolization administered once daily for 4 weeks by H and E staining based analysis; assay type: functional, organism-based; conditions: dose 25-50 mg/kg
RAW264.7 [29] = test: Anti-inflammatory activity in LPS induced mouse RAW264.7 cells assessed as inhibition of IL-6 mRNA expression at 10 uM incubated for 12 hrs followed by LPS stimulation and measured after 6 hrs by RT-PCR method; assay type: functional, cell-based; conditions: time 18.0 hrs

COc1ccc(CN2CCC(NC(=O)C(C)(C)CCCOc3cc(C)ccc3C)CC2)cc1
Activity (RAW264.7 [1]): 7.19%
IC50 (RAW264.7 [2]): 4.15 µM

Cc1ccc(C)c(OCCCC(C)(C)C(=O)NC2CCN(Cc3ccccc3)CC2)c1
Activity (RAW264.7 [3]): Active

CC(C)(Oc1ccc(C(=O)c2ccc(Cl)cc2)cc1)C(=O)NC1CCN(Cc2ccc(C(F)(F)F)cc2)CC1
Activity (Mus musculus [4]): Dose-Dependent Effect
Activity (Mus musculus [5]): Active
Activity (Mus musculus [6]): Active
Activity (Mus musculus [7]): Dose-Dependent Effect
Activity (Mus musculus [8]): Active
Activity [9]: Dose-Dependent Effect
Activity (Mus musculus [10]): Active
Activity [11]: Active
Activity (RAW264.7 [1]): 98.46%
Activity (Mus musculus [12]): Active
Activity (Mus musculus [13]): Dose-Dependent Effect
IC50 (RAW264.7 [2]): 4.4 µM
Activity (Mus musculus [14]): Dose-Dependent Effect
Activity (Mus musculus [15]): Active
Activity (Mus musculus [16]): Active
Activity (Mus musculus [17]): Dose-Dependent Effect
Activity (Mus musculus [18]): Dose-Dependent Effect
Activity (Mus musculus [19]): Dose-Dependent Effect
Activity (Mus musculus [20]): Dose-Dependent Effect
Activity (Mus musculus [21]): Active
Activity (Mus musculus [22]): Active
Activity (Mus musculus [23]): Active
Activity (Mus musculus [24]): Active
Activity (RAW264.7 [25]): Active
Activity [26]: Active
Activity (Mus musculus [27]): Active
Activity (Mus musculus [28]): Dose-Dependent Effect

CC(C)(Oc1ccc(Cl)cc1)C(=O)NC1CCN(Cc2ccccc2)CC1
Activity (RAW264.7 [3]): inactive

Cc1ccc(C)c(OCCCC(C)(C)C(=O)NC2CCN(Cc3ccc(Cl)cc3)CC2)c1
Activity (RAW264.7 [1]): 68.99%
IC50 (RAW264.7 [2]): 14.8 µM

COc1ccc(CN2CCC(NC(=O)COc3ccc(C(=O)c4ccc(Cl)cc4)cc3)CC2)cc1
Activity (RAW264.7 [1]): 3.33%
IC50 (RAW264.7 [2]): 10.2 µM

Cc1ccc(CN2CCC(NC(=O)C(C)(C)CCCOc3cc(C)ccc3C)CC2)cc1
Activity (RAW264.7 [1]): 42.67%
IC50 (RAW264.7 [2]): 6.54 µM

Cc1ccc(C)c(OCCCC(C)(C)C(=O)NC2CCN(Cc3ccc(F)cc3)CC2)c1
Activity (RAW264.7 [1]): 78.02%
IC50 (RAW264.7 [2]): 4.56 µM

CC(C)(Oc1ccc(C(=O)c2ccc(Cl)cc2)cc1)C(=O)NC1CCN(Cc2ccccc2)CC1
Activity (RAW264.7 [3]): Active

Cc1ccc(C)c(OCCCC(C)(C)C(=O)NC2CCN(Cc3ccc(C(F)(F)F)cc3)CC2)c1
Activity (RAW264.7 [1]): 93.12%
IC50 (RAW264.7 [2]): 5.17 µM

O=C(COc1ccc(C(=O)c2ccccc2)cc1)NC1CCN(Cc2ccccc2)CC1
Activity (RAW264.7 [29]): Active
Activity (RAW264.7 [1]): 96.32%
Activity (RAW264.7 [3]): Active
IC50 (RAW264.7 [2]): 15 µM

Cc1ccc(CN2CCC(NC(=O)C(C)(C)Oc3ccc(C(=O)c4ccc(Cl)cc4)cc3)CC2)cc1
Activity (RAW264.7 [1]): 4.64%
IC50 (RAW264.7 [2]): 8.56 µM

CC(C)(Oc1ccc(C(=O)c2ccc(Cl)cc2)cc1)C(=O)NC1CCN(Cc2ccc(OC(F)(F)F)cc2)CC1
Activity (RAW264.7 [1]): 88.34%
IC50 (RAW264.7 [2]): 9.76 µM

COc1ccc(CN2CCC(NC(=O)C(C)(C)Oc3ccc(C(=O)c4ccc(Cl)cc4)cc3)CC2)cc1
Activity (RAW264.7 [1]): 4.08%
IC50 (RAW264.7 [2]): 4.57 µM
